Measurements reported in patent US5221677A, “5-lipoxygenase inhibitors quinoline or isoquinoline derivatives” (Imperial Chemical Industries PLC, priority 1989, dated 1993).

How the values were obtained:
5-LO [1] = experiment: Ex vivo assay: administration of test compound, blood collection, A23187 challenge, LTB4 radioimmunoassay (test c); type: in vivo; conditions: oral
5-LO [2] = experiment: Liberation of LTB4 induced by zymosan within an air pouch in male rats (test g); type: in vivo; conditions: 3 h, oral, rat air pouch
Procedure: g) An in vivo system involving measuring the effects of a test compound administered orally against the liberation of LTB4 induced by zymosan within an air pouch generated within the subcutaneous tissue of the back of male rats. The rats are anaesthetised and air pouches are formed by the injection of sterile air (20 ml). A further injection of air (10 ml) is similarly given after 3 days). At 6 days after the initial air injection the test compound is administered (usually orally as the supsension produced when a solution of the test compound in dimethylsulphoxide is added to hydroxypropylmethylcellulose), followed by the intrapouch injection of zymosan (1 ml of a 1% suspension in physiological saline). After 3 hours the rats are killed, the air pouches are lavaged with physiological saline, and the specific radioimmunoassay described above is used to assay LTB4 in washings. This test provides an indication of inhibitory effects against 5-LO in an inflammatory milieu.

5-LO [3] = experiment: In vitro heparinised human blood assay, A23187 challenge, LTB4 radioimmunoassay (test b); type: cell-based
Procedure: b) An in vitro assay system involving incubating a test compound with heparinised human blood, prior to challenge with the calcium ionophore A23187 and then indirectly measuring the inhibitory effects on 5-LO by assaying the amount of LTB4 using the specific radioimmunoassay described by Carey and Forder (F. Carey and R. A. Forder, Brit. J. Pharmacol. 1985, 84, 34P) which involves the use of a protein-LTB4 conjugate produced using the procedure of Young et alia (Prostaglandins, 1983, 26(4), 605-613). The effects of a test compound on the enzyme cyclooxygenase (which is involved in the alternative metabolic pathway for arachidonic acid and gives rise to prostaglandins, thromboxanes and related metabolites) may be measured at the same time using the specific radioimmunoassay for thromboxane B2 (TxB2) described by Carey and Forder (see above). This test provides an indication of the effects of a test compound against 5-LO and also cyclooxygenase in the presence of blood cells and proteins. It permits the selectivity of the inhibitory effect on 5-LO or cyclooxygenase to be assessed.

`COC1(c2cccc(Sc3ccc4c(ccc(=O)n4C)c3)c2)CCOCC1` [Example 1, 4-[3-(1,2-dihydro-1-methyl-2-oxoquinolin-6-ylthio)phenyl]-4-methoxytetrahydropyran] was tested, and the ED50 (5-LO [1]) was 1.5 mg/kg, the ED50 (5-LO [2]) was 1 mg/kg and the IC50 (5-LO [3]) was < 40 nM.
